Holding throughout (format): in vitro ADME, human
Holding throughout (settings): human, 24 h, LC-MS

A short description of data set [1]: Soluble peptide degradation, Cells condition (LC-MS). As to the method:
(§1) Most in vitro protease activity assays incubate the peptides or proteins of interest with a single protease in a buffered solution. However, the kinetics of protease activity in tissues are complex and highly regulated, and both the activity^[ [37] ^] and substrate specificity^[ [38] ^] of proteases can be modulated through association with other proteins.^[ [39] ^] Most MMP‐substrate peptides are also cleaved by multiple proteases,^[ [5] ^] and within the context of biomaterials, the most important factor is typically how the combined activity of all proteases, rather than the activity of any specific protease, modifies the local microenvironment versus the activity due to any individual enzyme. We synthesized peptides identified in the TAILS proteomic screen that were present on proteins that are known to be secreted or found on the cell membrane, pooled them, and added them either to cell culture media on top of cells, the “Cells” condition, or conditioned media lacking cells, the “Media” condition (Figure 2A). The fraction of peptides remaining after 24 h in each condition was then quantified using LC‐MS. Soluble proteases should be present in both conditions, however, membrane‐type proteases should primarily be found in the samples containing cells and not the conditioned media samples. A key benefit of this approach is that it surveys the total functional proteolytic activity, including the effects of inhibitors and co‐factors, and quantifies the degradation rate of soluble peptides by the complete secretome of different cell types.
(§2) hUVECs (75000 per well) or hMSCs (36000 per well) were seeded into a 48 well plate, and 500 µL media was added to the wells. […] The peptide libraries were dissolved at a stock solution of 10 mM total peptide content. For libraries containing 38 peptides, 95 µL of the stock solution was added to each well; for libraries with 19 peptides, 47.5 µL was added to each well, and media was taken at 0 and 24 h. Add 4 µL of acetic acid to all collected media in the LC‐MS plates and store them in a −80 °C freezer to prevent further proteolytic degradation. From each sample, 10 µL of crude solution was introduced by the LC‐MS through a Thermo Scientific Vanquish LC System (Thermo Fisher Scientific), which outputted to a Thermo Scientific LTQ XL Linear Ion Trap Mass Spectrometer (Thermo Fisher Scientific). The sampled mixture was trapped on a column (ProntoSIL C18 AQ, 120 Å, 3 µm, 2.0 x 50 mm HPLC Column, PN 0502F184PS030, MAC‐MOD Analytical Inc.). The samples were loaded onto the column with a solvent containing acetonitrile/water, 5:95 (v/v) containing 1% acetic acid at a flow rate of 300 µL min^−1 and held for 1 min. The sample was then eluted from the column with a linear gradient of 5–40% Solvent B (1% acetic acid in acetonitrile) at the same flow rate for 5 min. This was followed by a 1 min ramp up to 100% Solvent B, where it was re‐equilibrated with Solvent A (1% acetic acid) to 5% solvent B over the course of 1 min and held there for 2 min. The column temperature was kept at a constant 29 °C, and the mass spectrometer was operated in positive ion mode. Using a Heated ESI, the Source Voltage was set to 4.1 kV, and the capillary temperature was 350 °C. For non‐library degradation studies, 2.5 µL of 10 mM peptide stock solution for each peptide was added.
In the MMP‐14 inhibitor study, the MMP‐14 inhibitor NSC 405 020 (Cayman Chemical Company) was dissolved in DMSO to make a 10 mM stock solution and stored in −20 °C freezer. 0.5 µL MMP‐14 inhibitor stock solution was added to each well to achieve a 10 µM final concentration.
For all degradation studies using soluble peptides, a non‐proteolytically degradable NH2‐βFβAβAβAβAβAβA‐amide (βFβA6) peptide, where βF is β‐phenylalanine and βA is β‐alanine, was added at a 50 µM concentration and used as an internal standard. Peptide degradation ratios were measured by LC‐MS and analyzed by Xcalibur. […]

The nature of data set [2]: Soluble peptide degradation, Media condition (cell-conditioned media, LC-MS). As to the method:
as §1, §2
(§3) To assess the activity of the conditioned media, the media were divided into two equal portions. One portion was used for a standard degradation study, while the other was cultured for an additional 24 h before the PanMMP and KLVADLMASAE were added. After 24 h of incubation, the media were collected for further analysis. To assess the impact of recombinant MMP‐14 on PanMMP and KLVADLMASAE, recombinant MMP‐14 (antibodies.com) was dissolved in the media at a concentration of 0.5 nM. The remaining steps followed the standard degradation study protocol. […]

Assay in data set [3]: as above
As to the method: as §1, §2, §3
This is another data set of the same source.

The mark [4] stands for this setting: hMSCs in culture with fresh media (Cells condition), Figure 3B heatmap, split-and-pool libraries KLVADX1X2ASAE (19 or 38 peptides per library) in media on hMSCs, ratio to βFβA6, N = 2, read-out: Fraction of peptide remaining after 24 hours: hMSC Cells.
Where [5] appears, read: hUVECs in culture with fresh media (Cells condition), Figure 3B heatmap, split-and-pool libraries KLVADX1X2ASAE in media on hUVECs, ratio to βFβA6, N = 2, read-out: Fraction of peptide remaining after 24 hours: hUVEC Cells.
[6] abbreviates: hUVEC-conditioned media without cells (Media condition), Figure 3B heatmap, split-and-pool libraries KLVADX1X2ASAE in hUVEC-conditioned media without cells, ratio to βFβA6, N = 2, read-out: Fraction of peptide remaining after 24 hours: hUVEC Media.
Where [7] appears, read: hMSC-conditioned media without cells (Media condition), Figure 3B heatmap, split-and-pool libraries KLVADX1X2ASAE in hMSC-conditioned media without cells, ratio to βFβA6, N = 2, read-out: Fraction of peptide remaining after 24 hours: hMSC Media.
[8] abbreviates: hMSCs in culture with fresh media (Cells condition), Figure 2B heatmap, pooled TAILS-derived soluble peptides (Ac-βAla N-terminus, βAla-amide C-terminus) in media on hMSCs (36000 per well, 48 well plate, 500 µL), ratio to βFβA6 internal standard, 24 h / 0 h, N = 5, read-out: Fraction of peptide remaining at 24 hours: hMSC Cells.
Setting [9] is: Figure 2B heatmap, pooled TAILS-derived soluble peptides in 24 h hUVEC-conditioned media without cells, ratio to βFβA6 internal standard, 24 h / 0 h, N = 5, read-out: Fraction of peptide remaining at 24 hours: hUVEC Media.
The mark [10] stands for this setting: Figure 2B heatmap, pooled TAILS-derived soluble peptides in 24 h hMSC-conditioned media without cells, ratio to βFβA6 internal standard, 24 h / 0 h, N = 5, read-out: Fraction of peptide remaining at 24 hours: hMSC Media.

The structures appear in SMILES notation. Where a SMILES comes first, the peptide text is derived from it. [ ]: non-standard residue; d: D form. βAla = NCCC(=O)O

As usually defined, the share remaining is what is left of the initial amount, in per cent.

With `CSCC[C@H](NC(=O)[C@H](CC(=O)O)NC(=O)[C@H](C)NC(=O)[C@@H](NC(=O)[C@H](CC(C)C)NC(=O)[C@H](CCCCN)NC(=O)CCNC(C)=O)C(C)C)C(=O)N[C@@H](C)C(=O)N[C@@H](C)C(=O)N[C@@H](CO)C(=O)N[C@@H](C)C(=O)N[C@@H](CCC(=O)O)C(=O)NCCC(N)=O` [Met-Ala] (Ac-[βAla]KLVADMAASAE[βAla]-NH2), the share remaining at 24 h in data set [1] (setting [4]) came out at 38%; in data set [1] (setting [5]) it was 88%; in data set [2] (setting [6]), 97%; in data set [3] (setting [7]), 61%.
Consider `CC(=O)NCCC(=O)N[C@@H](CCCCN)C(=O)N[C@@H](CC(C)C)C(=O)N[C@H](C(=O)N[C@@H](C)C(=O)N[C@@H](CC(=O)O)C(=O)N[C@@H](CC(N)=O)C(=O)N1CCC[C@H]1C(=O)N[C@@H](C)C(=O)N[C@@H](CO)C(=O)N[C@@H](C)C(=O)N[C@@H](CCC(=O)O)C(=O)NCCC(N)=O)C(C)C` [Asn-Pro] (Ac-[βAla]KLVADNPASAE[βAla]-NH2), for which the amount remaining at 24 h in data set [1] (cells or culture medium, Figure 3B heatmap, split-and-pool libraries KLVADX1X2ASAE (19 or 38 peptides per library) in media on hMSCs, ratio to βFβA6, N = 2, read-out: Fraction of peptide remaining after 24 hours: hMSC Cells) was determined as 54%; in data set [1] (cells or culture medium, Figure 3B heatmap, split-and-pool libraries KLVADX1X2ASAE in media on hUVECs, ratio to βFβA6, N = 2, read-out: Fraction of peptide remaining after 24 hours: hUVEC Cells) it was 91%; in data set [2] (cells or culture medium, Figure 3B heatmap, split-and-pool libraries KLVADX1X2ASAE in hUVEC-conditioned media without cells, ratio to βFβA6, N = 2, read-out: Fraction of peptide remaining after 24 hours: hUVEC Media), 98%; in data set [3] (cells or culture medium, Figure 3B heatmap, split-and-pool libraries KLVADX1X2ASAE in hMSC-conditioned media without cells, ratio to βFβA6, N = 2, read-out: Fraction of peptide remaining after 24 hours: hMSC Media), 84%.
Take `CC(=O)NCCC(=O)N[C@@H](CCCCN)C(=O)N[C@@H](CC(C)C)C(=O)N[C@H](C(=O)N[C@@H](C)C(=O)N[C@@H](CC(=O)O)C(=O)N[C@@H](CO)C(=O)N[C@@H](CC(=O)O)C(=O)N[C@@H](C)C(=O)N[C@@H](CO)C(=O)N[C@@H](C)C(=O)N[C@@H](CCC(=O)O)C(=O)NCCC(N)=O)C(C)C` [Ser-Asp] (Ac-[βAla]KLVADSDASAE[βAla]-NH2): the share remaining at 24 h came out at 48% in data set [1] (setting [4]), 84% in data set [1] (setting [5]), 94% in data set [2] (setting [6]) and 71% in data set [3] (setting [7]).
Consider `CC[C@H](C)[C@H](NC(=O)[C@H](Cc1ccc(O)cc1)NC(=O)[C@H](CC(=O)O)NC(=O)[C@H](C)NC(=O)[C@@H](NC(=O)[C@H](CC(C)C)NC(=O)[C@H](CCCCN)NC(=O)CCNC(C)=O)C(C)C)C(=O)N[C@@H](C)C(=O)N[C@@H](CO)C(=O)N[C@@H](C)C(=O)N[C@@H](CCC(=O)O)C(=O)NCCC(N)=O` [Tyr-Ile] (Ac-[βAla]KLVADYIASAE[βAla]-NH2), for which the share remaining at 24 h in data set [1] (setting [4]) came out at 43%; in data set [1] (setting [5]), 86%; in data set [2] (setting [6]) it was 92%; in data set [3] (setting [7]), 76%.
Take `CC(=O)NCCC(=O)N[C@@H](CCCCN)C(=O)N[C@@H](CC(C)C)C(=O)N[C@H](C(=O)N[C@@H](C)C(=O)N[C@@H](CC(=O)O)C(=O)N[C@@H](CC(C)C)C(=O)N[C@@H](CC(C)C)C(=O)N[C@@H](C)C(=O)N[C@@H](CO)C(=O)N[C@@H](C)C(=O)N[C@@H](CCC(=O)O)C(=O)NCCC(N)=O)C(C)C` [Leu-Leu] (Ac-[βAla]KLVADLLASAE[βAla]-NH2): the share remaining at 24 h is 41% in data set [1] (setting [4]), 91% in data set [1] (setting [5]), 97% in data set [2] (setting [6]) and 73% in data set [3] (setting [7]).
As for `CC(=O)NCCC(=O)N[C@@H](CCCCN)C(=O)N[C@@H](CC(C)C)C(=O)N[C@H](C(=O)N[C@@H](C)C(=O)N[C@@H](CC(=O)O)C(=O)N1CCC[C@H]1C(=O)N[C@H](C(=O)N[C@@H](C)C(=O)N[C@@H](CO)C(=O)N[C@@H](C)C(=O)N[C@@H](CCC(=O)O)C(=O)NCCC(N)=O)C(C)C)C(C)C` [Pro-Val] (Ac-[βAla]KLVADPVASAE[βAla]-NH2), the fraction remaining at 24 h in data set [1] (setting [4]) was 51%; in data set [1] (setting [5]), 92%; in data set [2] (setting [6]) it was 100%; in data set [3] (setting [7]), 84%.
In the case of `CC(=O)NCCC(=O)N[C@@H](C)C(=O)N[C@@H](CO)C(=O)N[C@@H](C)C(=O)N1CCC[C@H]1C(=O)N[C@@H](C)C(=O)N[C@@H](CCCNC(=N)N)C(=O)N1CCC[C@H]1C(=O)N[C@@H](C)C(=O)N[C@@H](CC(C)C)C(=O)N[C@@H](CO)C(=O)NCCC(N)=O` [ASAPARPALS] (Ac-[βAla]ASAPARPALS[βAla]-NH2), the share remaining at 24 h in data set [1] (setting [8]) stood at 88%; in data set [2] (setting [9]) it was 94%; in data set [3] (setting [10]), 96%.
`CC[C@H](C)[C@H](NC(=O)[C@@H](NC(=O)[C@H](CCSC)NC(=O)[C@@H]1CCCN1C(=O)[C@H](CCCCN)NC(=O)[C@H](CCCCN)NC(=O)CCNC(C)=O)[C@@H](C)O)C(=O)N[C@@H](C)C(=O)N[C@@H](CCCNC(=N)N)C(=O)N[C@@H](CC(C)C)C(=O)N[C@@H](CC(N)=O)C(=O)N[C@@H](C)C(=O)N[C@@H](CCCCN)C(=O)N[C@@H](CCCCN)C(=O)NCCC(N)=O` [KKPMTIARLNAKK] (Ac-[βAla]KKPMTIARLNAKK[βAla]-NH2): the share remaining at 24 h in data set [1] (setting [8]) stood at 75%; in data set [1] (hUVECs in culture with fresh media (Cells condition), Figure 2B heatmap, pooled TAILS-derived soluble peptides in media on hUVECs (75000 per well, 48 well plate, 500 µL), ratio to βFβA6 internal standard, 24 h / 0 h, N = 5, read-out: Fraction of peptide remaining at 24 hours: hUVEC Cells), 73%; in data set [2] (setting [9]), 74%; in data set [3] (setting [10]), 94%.

The record behind these values is article PMC12683216, “Using High‐Throughput Screening to Identify Crosslinking Peptides That Control Cell‐Mediated Matrix Degradation” (Advanced Healthcare Materials, 2025).
